Results published in PubChem BioAssay AID330 (DTP/NCI, 2004).
Values joined by “and” are separate entries in the source; they are usually repeats but may differ in a detail not shown here. Identical values can stand only once. Toxic doses and inconclusive results are not listed.

Tested on: P388 leukemia ip, CD2F1 mice, survival T/C
Assay: NCI In Vivo Anticancer Drug Screen. Data for tumor model P388 Leukemia (intraperitoneal) in CD2F1 (CDF1) mice
Settings: endpoint: median survival time, higher = longer survival
Summary of the method: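 Mice carrying the transplanted tumor received test compound or vehicle. Survival was recorded in each group, and the value is the treated-group measurement divided by that of the vehicle-treated control group.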

[1] = dose: 25.0 mg/kg/injection, schedule: Q01DX005 (ip), vehicle: saline with Tween-80
[2] = dose: 50.0 mg/kg/injection, schedule: Q01DX005 (ip), vehicle: saline with Tween-80
[3] = dose: 100.0 mg/kg/injection, schedule: Q01DX005 (ip), vehicle: saline with Tween-80
[4] = dose: 12.5 mg/kg/injection, schedule: Q01DX009 (ip), vehicle: Klucel (hydroxypropylcellulose) (HPC)
[5] = dose: 25.0 mg/kg/injection, schedule: Q01DX009 (ip), vehicle: Klucel (hydroxypropylcellulose) (HPC)
[6] = dose: 50.0 mg/kg/injection, schedule: Q01DX009 (ip), vehicle: Klucel (hydroxypropylcellulose) (HPC)
[7] = dose: 200.0 mg/kg/injection, schedule: Q01DX005 (ip), vehicle: saline with Tween-80
[8] = dose: 50.0 mg/kg/injection, schedule: Q01DX009 (ip), vehicle: saline with Tween-80
[9] = dose: 100.0 mg/kg/injection, schedule: Q01DX009 (ip), vehicle: saline with Tween-80
[10] = dose: 200.0 mg/kg/injection, schedule: Q01DX009 (ip), vehicle: saline with Tween-80
[11] = dose: 25.0 mg/kg/injection, schedule: Q04DX003 (ip), vehicle: saline with Tween-80
[12] = dose: 50.0 mg/kg/injection, schedule: Q04DX003 (ip), vehicle: saline with Tween-80
[13] = dose: 50.0 mg/kg/injection, schedule: Q01DX009 (ip), vehicle: saline
[14] = dose: 100.0 mg/kg/injection, schedule: Q01DX009 (ip), vehicle: saline
[15] = dose: 200.0 mg/kg/injection, schedule: Q01DX009 (ip), vehicle: saline
[16] = dose: 6.25 mg/kg/injection, schedule: Q01DX009 (ip), vehicle: saline with Tween-80
[17] = dose: 12.5 mg/kg/injection, schedule: Q01DX009 (ip), vehicle: saline with Tween-80
[18] = dose: 6.25 mg/kg/injection, schedule: Q01DX009 (ip), vehicle: water
[19] = dose: 12.5 mg/kg/injection, schedule: Q01DX009 (ip), vehicle: water
[20] = dose: 25.0 mg/kg/injection, schedule: Q01DX009 (ip), vehicle: water
[21] = dose: 100.0 mg/kg/injection, schedule: Q01DX009 (ip), vehicle: Klucel (hydroxypropylcellulose) (HPC)
[22] = dose: 200.0 mg/kg/injection, schedule: Q01DX009 (ip), vehicle: Klucel (hydroxypropylcellulose) (HPC)

Compound: CCN(CC)CCOc1ccc(C(C)=O)cc1
- T/C [1]: 99 % of control
- T/C [2]: 92 % of control
- T/C [3]: 101 % of control

Compound: CCN(CC)CCNc1ccc([N+](=O)[O-])cc1[N+](=O)[O-]
- T/C (dose: 6.25 mg/kg/injection, schedule: Q01DX009 (ip), vehicle: Klucel (hydroxypropylcellulose) (HPC)): 93 % of control
- T/C [4]: 105 % of control
- T/C [5]: 114 % of control
- T/C [6]: 99 % of control

Compound: OCC1OC(n2cnc3c(Br)ncnc32)C(O)C1O (centres undefined)
- T/C [2]: 91 % of control
- T/C [3]: 98 % of control
- T/C [7]: 91 % of control

Compound: C[N+](C)(C)NP(=O)(N[N+](C)(C)C)c1ccccc1
- T/C (dose: 60.0 mg/kg/injection, schedule: Q01DX005 (ip), vehicle: saline): 100 % of control
- T/C (dose: 120.0 mg/kg/injection, schedule: Q01DX005 (ip), vehicle: saline): 106 % of control
- T/C (dose: 240.0 mg/kg/injection, schedule: Q01DX005 (ip), vehicle: saline): 100 % of control

Compound: Nc1ccc(S(=O)(=O)Nc2c(N)nc(SCC(=O)O)[nH]c2=O)cc1
- T/C (dose: 60.0 mg/kg/injection, schedule: Q01DX005 (ip), vehicle: Klucel (hydroxypropylcellulose) (HPC)): 92 % of control
- T/C (dose: 120.0 mg/kg/injection, schedule: Q01DX005 (ip), vehicle: Klucel (hydroxypropylcellulose) (HPC)): 96 % of control
- T/C (dose: 240.0 mg/kg/injection, schedule: Q01DX005 (ip), vehicle: Klucel (hydroxypropylcellulose) (HPC)): 92 % of control

Compound: CCOC(=O)CCC1CCCCC1=O (centres undefined)
- T/C [8]: 103 % of control
- T/C [9]: 93 % of control
- T/C [10]: 103 % of control

Compound: C/C(=C\Cl)CN(C)C
- T/C (dose: 25.0 mg/kg/injection, schedule: Q01DX009 (ip), vehicle: saline with Tween-80): 111 % of control
- T/C [8]: 111 % of control
- T/C [9]: 116 % of control

Compound: O=C1NCNC(=O)N1
- T/C (dose: 12.5 mg/kg/injection, schedule: Q04DX003 (ip), vehicle: saline with Tween-80): 100 % of control
- T/C [11]: 98 % of control
- T/C [12]: 101 % of control
- T/C (dose: 100.0 mg/kg/injection, schedule: Q04DX003 (ip), vehicle: saline with Tween-80): 98 % of control

Compound: COc1cccc(C(Cc2ccccc2)NCc2ccccc2)c1O (centres undefined)
- T/C [2]: 105 % of control
- T/C [3]: 103 % of control
- T/C [7]: 101 % of control

Compound: C=C1C(=O)OC2C1C(OC(=O)/C(C)=C/C)CC1(CO1)C1C(O)C3OC3(C)C21O (centres undefined)
- T/C (dose: 25.0 mg/kg/injection, schedule: Q04DX002 (ip), vehicle: saline with Tween-80): 117 % of control
- T/C (dose: 50.0 mg/kg/injection, schedule: Q04DX002 (ip), vehicle: saline with Tween-80): 117 % of control

Compound: CCOc1cc2c(=O)[nH]cnc2c(OCC)c1OCC
- T/C [8]: 106 % of control
- T/C [9]: 100 % of control
- T/C [10]: 98 % of control

Compound: Cc1cccc([B-]23OCC[N+]2(CNC(=O)c2ccccc2O)CCO3)c1 (centres undefined)
- T/C (dose: 50.0 mg/kg/injection, schedule: Q01DX005 (ip), vehicle: Klucel (hydroxypropylcellulose) (HPC)): 105 % of control
- T/C (dose: 100.0 mg/kg/injection, schedule: Q01DX005 (ip), vehicle: Klucel (hydroxypropylcellulose) (HPC)): 104 % of control
- T/C (dose: 200.0 mg/kg/injection, schedule: Q01DX005 (ip), vehicle: Klucel (hydroxypropylcellulose) (HPC)): 104 % of control

Compound: OC1CCC2CC2C1 (centres undefined)
- T/C [13]: 108 % of control
- T/C [14]: 102 % of control
- T/C [15]: 108 % of control

Compound: CN(C)C(=S)N1C(=O)C2C3CCC(O3)C2C1=O (centres undefined)
- T/C (dose: 1.87 mg/kg/injection, schedule: Q01DX005 (ip), vehicle: saline with Tween-80): 102 % of control
- T/C (dose: 3.75 mg/kg/injection, schedule: Q01DX005 (ip), vehicle: saline with Tween-80): 100 % of control
- T/C (dose: 7.5 mg/kg/injection, schedule: Q01DX005 (ip), vehicle: saline with Tween-80): 99 % of control and 98 % of control

Compound: COC(=O)[C@H]1[C@H]2C[C@@H]3c4[nH]c5cc(OC)ccc5c4CCN3C[C@H]2C[C@@H](OC(=O)c2cccc(N)c2)[C@@H]1OC
- T/C [2]: 101 % of control
- T/C [3]: 97 % of control
- T/C [7]: 97 % of control

Compound: O=[N+]([O-])c1cnc(/C=[N+](\[O-])CCO)n1CCO
- T/C [13]: 99 % of control
- T/C [14]: 90 % of control
- T/C [15]: 106 % of control

Compound: CC(C)(C)Nc1nc2ccccc2c(=O)o1
- T/C (dose: 100.0 mg/kg/injection, schedule: Q01DX001 (ip), vehicle: saline with Tween-80): 101 % of control
- T/C (dose: 200.0 mg/kg/injection, schedule: Q01DX001 (ip), vehicle: saline with Tween-80): 106 % of control
- T/C (dose: 400.0 mg/kg/injection, schedule: Q01DX001 (ip), vehicle: saline with Tween-80): 116 % of control

Compound: CCOC(=O)Nc1ccc2nc(Sc3ccc(Cl)cc3)sc2c1
- T/C [8]: 103 % of control
- T/C [9]: 100 % of control
- T/C [10]: 106 % of control

Compound: Cc1ccccc1-c1cc2ccccc2c(N)n1
- T/C [16]: 118 % of control
- T/C [17]: 99 % of control

Compound: O=NN(CCOCCCl)C(=O)NC1CCCCC1
- T/C [18]: 100 % of control
- T/C [19]: 100 % of control
- T/C [20]: 107 % of control
- T/C (dose: 200.0 mg/kg/injection, schedule: Q01DX009 (ip), vehicle: water): 152 % of control

Compound: ON(C(=S)Nc1ccc(Cl)cc1)c1ccccc1
- T/C (dose: 12.5 mg/kg/injection, schedule: Q01DX005 (ip), vehicle: saline with Tween-80): 104 % of control
- T/C [1]: 100 % of control
- T/C [2]: 95 % of control and 98 % of control
- T/C [3]: 94 % of control
- T/C [7]: 97 % of control

Compound: CN1C(=O)C2C(C(=O)O)C2N(C)C1=O (centres undefined)
- T/C (dose: 10.0 mg/kg/injection, schedule: Q04DX003 (ip), vehicle: saline): 99 % of control
- T/C (dose: 100.0 mg/kg/injection, schedule: Q04DX003 (ip), vehicle: saline): 99 % of control
- T/C (dose: 200.0 mg/kg/injection, schedule: Q04DX003 (ip), vehicle: saline): 99 % of control and 101 % of control
- T/C (dose: 400.0 mg/kg/injection, schedule: Q04DX003 (ip), vehicle: saline): 100 % of control and 101 % of control

Compound: CCOC(=O)Cc1cc2cc(OCC)ncc2cc1C
- T/C (dose: 6.25 mg/kg/injection, schedule: Q01DX009 (ip), vehicle: distilled water + Tween-80): 91 % of control
- T/C (dose: 12.5 mg/kg/injection, schedule: Q01DX009 (ip), vehicle: distilled water + Tween-80): 89 % of control
- T/C (dose: 25.0 mg/kg/injection, schedule: Q01DX009 (ip), vehicle: distilled water + Tween-80): 103 % of control
- T/C (dose: 50.0 mg/kg/injection, schedule: Q01DX009 (ip), vehicle: distilled water + Tween-80): 99 % of control
- T/C (dose: 100.0 mg/kg/injection, schedule: Q01DX009 (ip), vehicle: distilled water + Tween-80): 94 % of control
- T/C (dose: 200.0 mg/kg/injection, schedule: Q01DX009 (ip), vehicle: distilled water + Tween-80): 109 % of control
- T/C (dose: 400.0 mg/kg/injection, schedule: Q01DX009 (ip), vehicle: distilled water + Tween-80): 102 % of control

Compound: COc1ccc(/C=C2\SC(=S)NC2=O)cc1OC
- T/C [6]: 94 % of control
- T/C [21]: 92 % of control
- T/C [22]: 94 % of control
- T/C (dose: 400.0 mg/kg/injection, schedule: Q01DX009 (ip), vehicle: Klucel (hydroxypropylcellulose) (HPC)): 91 % of control

Compound: CC(=O)N/N=C/C=C/c1ccccc1
- T/C (dose: 3.13 mg/kg/injection, schedule: Q01DX009 (ip), vehicle: saline with Tween-80): 117 % of control
- T/C [16]: 106 % of control
- T/C [17]: 104 % of control

Compound: COc1cc(C=Nc2cccc(Cl)c2)ccc1N(CCCl)CCCl
- T/C [11]: 172 % of control
- T/C [12]: 181 % of control

Compound: CCN(CC)C(=O)S(=O)(=O)c1ccccc1
- T/C [4]: 106 % of control
- T/C [5]: 101 % of control and 98 % of control
- T/C [6]: 120 % of control
- T/C [21]: 111 % of control
- T/C [22]: 110 % of control

Compound: COc1c2c(c(OC)c3c1C(=O)c1ccccc1C3=O)CC=CC2
- T/C (dose: 1.56 mg/kg/injection, schedule: Q01DX009 (ip), vehicle: water): 101 % of control
- T/C (dose: 3.13 mg/kg/injection, schedule: Q01DX009 (ip), vehicle: water): 104 % of control
- T/C [18]: 103 % of control
- T/C [19]: 103 % of control
- T/C [20]: 100 % of control

Compound: C=C(C)[C@H]1C[C@@H](O)[C@H]2O[C@@]2(C)C1
- T/C [13]: 91 % of control
- T/C [14]: 90 % of control
- T/C [15]: 102 % of control
